# From PubChem BioAssay AID1963422 (Molecular Pharmacology Branch, DTP, NCI, 2024)
# Values joined by “and” are separate entries in the source; they are usually repeats but may differ in a detail not shown here. Equal values may be shown once.
# Test system: 463943-066-T-J2-PDC complex spheroid growth
# Assay: Anticancer human tumor 463943-066-T-J2-PDC patient-derived colon adenocarcinoma cell line growth inhibition [Asc]
# Details: for viability, T/C: stronger effect = lower value
# Summary of the method: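 Concentration series start at each agent's clinical Cmax, or at 10 microM when none is established, and drop in half-log steps; agents are applied alone or together to complex spheroids built with HUVEC and hMSC.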
# 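Note: compound exposure lasted 7 days.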
# 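Throughout, for viability, T/C: 100% = DMSO vehicle control wells.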
compound,measurement,setting,value
NC1CCC(NC2CC2c2ccccc2)CC1 (stereo unspecified) + CCN1C(C(=O)NC23CCC(C(=O)O)(CC2)CC3)C(c2cccc(Cl)c2F)C2(C(=O)Nc3cc(Cl)ccc32)C12CCCCC2,IC50,"curve of first compound, second compound 0.00949 µM",> 100 nM
same,IC50,"curve of first compound, second compound 0.03 µM",> 100 nM
same,IC50,"curve of first compound, second compound 0.0949 µM",> 100 nM
same,IC50,"curve of first compound, second compound 0.3 µM",> 100 nM
same,IC50,"curve of first compound, second compound 0.949 µM",> 100 nM
same,IC50,"curve of first compound, second compound 3 µM",> 100 nM
same,"viability, T/C","second compound 0.00949 µM, first compound 0.000316 µM",89.9%
same,"viability, T/C","second compound 0.00949 µM, first compound 0.001 µM",76.8%
same,"viability, T/C","second compound 0.00949 µM, first compound 0.00316 µM",87.3%
same,"viability, T/C","second compound 0.00949 µM, first compound 0.01 µM",91.6%
same,"viability, T/C","second compound 0.00949 µM, first compound 0.0316 µM",87.1%
same,"viability, T/C","second compound 0.00949 µM, first compound 0.1 µM",89%
same,"viability, T/C","second compound 0.03 µM, first compound 0.000316 µM",88.8%
same,"viability, T/C","second compound 0.03 µM, first compound 0.001 µM",79.3%
same,"viability, T/C","second compound 0.03 µM, first compound 0.00316 µM",83.1%
same,"viability, T/C","second compound 0.03 µM, first compound 0.01 µM",82.5%
same,"viability, T/C","second compound 0.03 µM, first compound 0.0316 µM",86.2%
same,"viability, T/C","second compound 0.03 µM, first compound 0.1 µM",75.3%
same,"viability, T/C","second compound 0.0949 µM, first compound 0.000316 µM",84.6%
same,"viability, T/C","second compound 0.0949 µM, first compound 0.001 µM",80.8%
same,"viability, T/C","second compound 0.0949 µM, first compound 0.00316 µM",77.1%
same,"viability, T/C","second compound 0.0949 µM, first compound 0.01 µM",82.8%
same,"viability, T/C","second compound 0.0949 µM, first compound 0.0316 µM",82.4%
same,"viability, T/C","second compound 0.0949 µM, first compound 0.1 µM",75.4%
same,"viability, T/C","second compound 0.3 µM, first compound 0.000316 µM",78.2%
same,"viability, T/C","second compound 0.3 µM, first compound 0.001 µM",77.3%
same,"viability, T/C","second compound 0.3 µM, first compound 0.00316 µM",71.5%
same,"viability, T/C","second compound 0.3 µM, first compound 0.01 µM",79%
same,"viability, T/C","second compound 0.3 µM, first compound 0.0316 µM",74.7%
same,"viability, T/C","second compound 0.3 µM, first compound 0.1 µM",71.9%
same,"viability, T/C","second compound 0.949 µM, first compound 0.000316 µM",67.7%
same,"viability, T/C","second compound 0.949 µM, first compound 0.001 µM",71.3%
same,"viability, T/C","second compound 0.949 µM, first compound 0.00316 µM",66.7%
same,"viability, T/C","second compound 0.949 µM, first compound 0.01 µM",67.2%
same,"viability, T/C","second compound 0.949 µM, first compound 0.0316 µM",71.5%
same,"viability, T/C","second compound 0.949 µM, first compound 0.1 µM",65.8%
same,"viability, T/C","second compound 3 µM, first compound 0.000316 µM",69.4%
same,"viability, T/C","second compound 3 µM, first compound 0.001 µM",68%
same,"viability, T/C","second compound 3 µM, first compound 0.00316 µM",66.5%
same,"viability, T/C","second compound 3 µM, first compound 0.01 µM",65.8%
same,"viability, T/C","second compound 3 µM, first compound 0.0316 µM",71%
same,"viability, T/C","second compound 3 µM, first compound 0.1 µM",64.3%
NC(=O)C(=Cn1cnc(-c2cc(C(F)(F)F)cc(C(F)(F)F)c2)n1)c1cncnc1,"viability, T/C",compound 0.000949 µM,96.5% and 87.3% and 115%
same,"viability, T/C",compound 0.003 µM,84.7% and 83.7% and 102%
same,"viability, T/C",compound 0.00949 µM,92.6% and 85.6% and 96.3%
same,"viability, T/C",compound 0.03 µM,87.8% and 84.8% and 87.7%
same,"viability, T/C",compound 0.0949 µM,83.6% and 81.3% and 79.4%
same,"viability, T/C",compound 0.3 µM,73.8% and 73.3% and 60.4%
same,IC50,curve of compound,> 300 nM
Cc1nc(N2CCC3(CC2)COC(C)C3N)c(CO)nc1Sc1ccnc(N)c1Cl (stereo unspecified) + Cc1c(S(C)(=O)=O)c(-c2cc(F)cc(N3CCN(c4ccc(NS(=O)(=O)c5ccc(NC(CCN6CCC(C(=O)OCCCP(=O)(O)O)CC6)CSc6ccccc6)c(S(=O)(=O)C(F)(F)F)c5)cc4)CC3)c2)c(-c2ccc(Cl)cc2)n1C(C)C,IC50,"curve of first compound, second compound 0.0316 µM",> 3000 nM
same,IC50,"curve of first compound, second compound 0.1 µM",> 3000 nM
same,IC50,"curve of first compound, second compound 0.316 µM",> 3000 nM
same,IC50,"curve of first compound, second compound 1 µM",> 3000 nM
same,IC50,"curve of first compound, second compound 3.16 µM",185 nM
same,IC50,"curve of first compound, second compound 10 µM",< 9.49 nM
same,"viability, T/C","second compound 0.0316 µM, first compound 0.00949 µM",106%
same,"viability, T/C","second compound 0.0316 µM, first compound 0.03 µM",86.8%
same,"viability, T/C","second compound 0.0316 µM, first compound 0.0949 µM",87.3%
same,"viability, T/C","second compound 0.0316 µM, first compound 0.3 µM",87.3%
same,"viability, T/C","second compound 0.0316 µM, first compound 0.949 µM",77.8%
same,"viability, T/C","second compound 0.0316 µM, first compound 3 µM",63.9%
same,"viability, T/C","second compound 0.1 µM, first compound 0.00949 µM",93.1%
same,"viability, T/C","second compound 0.1 µM, first compound 0.03 µM",87.2%
same,"viability, T/C","second compound 0.1 µM, first compound 0.0949 µM",90.7%
same,"viability, T/C","second compound 0.1 µM, first compound 0.3 µM",82.4%
same,"viability, T/C","second compound 0.1 µM, first compound 0.949 µM",75.1%
same,"viability, T/C","second compound 0.1 µM, first compound 3 µM",58.1%
same,"viability, T/C","second compound 0.316 µM, first compound 0.00949 µM",84%
same,"viability, T/C","second compound 0.316 µM, first compound 0.03 µM",85.1%
same,"viability, T/C","second compound 0.316 µM, first compound 0.0949 µM",78.5%
same,"viability, T/C","second compound 0.316 µM, first compound 0.3 µM",71.1%
same,"viability, T/C","second compound 0.316 µM, first compound 0.949 µM",65.8%
same,"viability, T/C","second compound 0.316 µM, first compound 3 µM",52.4%
same,"viability, T/C","second compound 1 µM, first compound 0.00949 µM",77.2%
same,"viability, T/C","second compound 1 µM, first compound 0.03 µM",73.7%
same,"viability, T/C","second compound 1 µM, first compound 0.0949 µM",66%
same,"viability, T/C","second compound 1 µM, first compound 0.3 µM",67.6%
same,"viability, T/C","second compound 1 µM, first compound 0.949 µM",64.9%
same,"viability, T/C","second compound 1 µM, first compound 3 µM",50.7%
same,"viability, T/C","second compound 3.16 µM, first compound 0.00949 µM",57%
same,"viability, T/C","second compound 3.16 µM, first compound 0.03 µM",58.5%
same,"viability, T/C","second compound 3.16 µM, first compound 0.0949 µM",51%
same,"viability, T/C","second compound 3.16 µM, first compound 0.3 µM",49.2%
same,"viability, T/C","second compound 3.16 µM, first compound 0.949 µM",41.4%
same,"viability, T/C","second compound 3.16 µM, first compound 3 µM",36.5%
same,"viability, T/C","second compound 10 µM, first compound 0.00949 µM",48.7%
same,"viability, T/C","second compound 10 µM, first compound 0.03 µM",44.8%
same,"viability, T/C","second compound 10 µM, first compound 0.0949 µM",41.4%
same,"viability, T/C","second compound 10 µM, first compound 0.3 µM",39.4%
same,"viability, T/C","second compound 10 µM, first compound 0.949 µM",35.9%
same,"viability, T/C","second compound 10 µM, first compound 3 µM",27.6%
